Columns and labels:
[1] = Metabolic stability, incubation with human liver cytosol; assay type: in vitro ADME; conditions: 1 µM test compound, 1 mg/mL protein
[2] = target: rCYP3A4 (Homo sapiens, UniProt P08684); conditions: for % Metabolized at 30 min Incubation with Human Liver Fractions/Enzymes rCYP3A4: 1 µM test compound, 100 pmol/mL
[3] = target: T1, CYP3A4 (Homo sapiens, UniProt P08684); assay: in vitro; conditions: microsomes, pH 7.4, % Inhibition of Control Activity CYP3A4 (substrate, testosterone)
T1 sequence (P08684 2-503): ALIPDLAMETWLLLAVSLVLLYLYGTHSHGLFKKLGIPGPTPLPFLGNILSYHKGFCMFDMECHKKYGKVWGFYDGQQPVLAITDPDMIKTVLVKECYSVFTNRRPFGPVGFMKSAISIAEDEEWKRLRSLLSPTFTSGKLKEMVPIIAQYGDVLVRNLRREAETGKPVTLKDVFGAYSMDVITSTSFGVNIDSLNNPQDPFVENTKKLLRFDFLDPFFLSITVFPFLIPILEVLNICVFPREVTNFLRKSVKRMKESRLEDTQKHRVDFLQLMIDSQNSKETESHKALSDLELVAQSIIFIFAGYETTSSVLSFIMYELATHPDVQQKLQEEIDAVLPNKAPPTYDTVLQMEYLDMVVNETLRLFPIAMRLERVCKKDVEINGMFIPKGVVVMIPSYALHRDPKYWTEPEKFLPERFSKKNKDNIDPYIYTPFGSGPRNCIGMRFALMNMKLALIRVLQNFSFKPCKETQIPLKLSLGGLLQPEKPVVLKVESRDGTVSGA

[4] = target: T1, CYP3A4; assay: in vitro; conditions: microsomes, pH 7.4
[5] = Metabolic stability, incubation with human liver microsomes; conditions: 1 µM test compound, 0.5 mg/mL protein
[6] = target: T2, CYP2C8 (Homo sapiens, UniProt P10632); assay: CYP inhibition in human liver microsomes, CYP2C8; conditions: human, human liver microsomes, pH 7.4, probe paclitaxel
T2 sequence (P10632 1-490): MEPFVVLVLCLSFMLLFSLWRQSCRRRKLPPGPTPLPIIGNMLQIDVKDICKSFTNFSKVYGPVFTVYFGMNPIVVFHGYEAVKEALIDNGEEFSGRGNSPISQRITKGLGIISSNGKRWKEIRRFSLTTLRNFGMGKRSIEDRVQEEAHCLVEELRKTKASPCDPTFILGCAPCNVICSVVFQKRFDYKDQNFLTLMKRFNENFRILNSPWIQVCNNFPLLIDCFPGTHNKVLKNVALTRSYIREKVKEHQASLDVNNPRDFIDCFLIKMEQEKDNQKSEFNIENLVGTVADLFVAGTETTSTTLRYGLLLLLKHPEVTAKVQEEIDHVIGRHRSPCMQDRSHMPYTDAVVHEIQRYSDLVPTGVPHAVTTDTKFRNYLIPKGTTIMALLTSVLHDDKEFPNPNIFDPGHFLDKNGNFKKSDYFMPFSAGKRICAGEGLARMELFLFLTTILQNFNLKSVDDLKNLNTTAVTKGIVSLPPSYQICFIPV

[7] = target: T3, rCYP1A2 (Homo sapiens, UniProt P05177); assay: Metabolic stability / reaction phenotyping with recombinant human CYP1A2; conditions: for % Metabolized at 30 min Incubation with Human Liver Fractions/Enzymes rCYP1A2: 1 µM test compound, 100 pmol/mL
T3 sequence (P05177 1-516): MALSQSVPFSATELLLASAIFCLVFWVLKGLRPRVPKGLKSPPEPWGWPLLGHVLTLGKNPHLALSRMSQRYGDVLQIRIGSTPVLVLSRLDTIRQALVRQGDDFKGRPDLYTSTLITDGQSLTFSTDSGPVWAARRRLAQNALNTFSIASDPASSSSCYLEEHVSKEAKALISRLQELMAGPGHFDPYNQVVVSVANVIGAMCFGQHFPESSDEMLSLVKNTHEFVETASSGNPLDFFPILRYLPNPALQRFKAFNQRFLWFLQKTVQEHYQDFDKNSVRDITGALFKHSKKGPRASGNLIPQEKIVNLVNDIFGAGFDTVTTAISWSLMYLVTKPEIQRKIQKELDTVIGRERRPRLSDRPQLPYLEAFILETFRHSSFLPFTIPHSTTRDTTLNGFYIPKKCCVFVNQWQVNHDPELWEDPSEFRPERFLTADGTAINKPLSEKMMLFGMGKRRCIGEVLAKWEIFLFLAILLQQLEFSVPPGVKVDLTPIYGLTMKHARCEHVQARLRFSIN

[8] = target: T4, rCYP2C8 (Homo sapiens, UniProt P10632); assay: Metabolic stability / reaction phenotyping with recombinant human CYP2C8; conditions: for % Metabolized at 30 min Incubation with Human Liver Fractions/Enzymes rCYP2C8: 1 µM test compound, 100 pmol/mL; for % Contribution of CYP Enzymes (fmCYP) in Metabolism, CYP2C8 / Predicted Microsomal Clint, CYP2C8 / rCYP Clint, CYP2C8: human, recombinant human CYP2C8, 1 µM, pH 7.4
T4 sequence (P10632 1-490): T2 sequence (P10632 1-490)

[9] = target: rCYP2C9 (Homo sapiens, UniProt P11712); assay: Metabolic stability / reaction phenotyping with recombinant human CYP2C9; conditions: for % Metabolized at 30 min Incubation with Human Liver Fractions/Enzymes rCYP2C9: 1 µM test compound, 100 pmol/mL; for % Contribution of CYP Enzymes (fmCYP) in Metabolism, CYP2C9 / Predicted Microsomal Clint, CYP2C9 / rCYP Clint, CYP2C9: human, recombinant human CYP2C9, 1 µM, pH 7.4
rCYP2C9, sequence (P11712 whole entry): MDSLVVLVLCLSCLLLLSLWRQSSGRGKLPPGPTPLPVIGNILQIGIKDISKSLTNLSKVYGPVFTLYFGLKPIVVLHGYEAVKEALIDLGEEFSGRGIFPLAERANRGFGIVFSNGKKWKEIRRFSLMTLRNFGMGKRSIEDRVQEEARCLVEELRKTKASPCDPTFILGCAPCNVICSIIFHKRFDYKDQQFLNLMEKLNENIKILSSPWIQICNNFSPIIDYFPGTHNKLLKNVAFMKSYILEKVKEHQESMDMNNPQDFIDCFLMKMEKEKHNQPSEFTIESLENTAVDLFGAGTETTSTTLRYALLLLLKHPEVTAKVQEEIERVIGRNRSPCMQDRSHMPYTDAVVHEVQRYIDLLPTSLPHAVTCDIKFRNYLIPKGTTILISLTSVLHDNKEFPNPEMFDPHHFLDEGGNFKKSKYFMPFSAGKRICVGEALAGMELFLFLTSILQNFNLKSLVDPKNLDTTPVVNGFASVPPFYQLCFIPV

[10] = target: rCYP2D6 (Homo sapiens, UniProt P10635); assay: Metabolic stability / reaction phenotyping with recombinant human CYP2D6; conditions: for % Metabolized at 30 min Incubation with Human Liver Fractions/Enzymes rCYP2D6: 1 µM test compound, 100 pmol/mL
rCYP2D6, sequence (P10635 whole entry): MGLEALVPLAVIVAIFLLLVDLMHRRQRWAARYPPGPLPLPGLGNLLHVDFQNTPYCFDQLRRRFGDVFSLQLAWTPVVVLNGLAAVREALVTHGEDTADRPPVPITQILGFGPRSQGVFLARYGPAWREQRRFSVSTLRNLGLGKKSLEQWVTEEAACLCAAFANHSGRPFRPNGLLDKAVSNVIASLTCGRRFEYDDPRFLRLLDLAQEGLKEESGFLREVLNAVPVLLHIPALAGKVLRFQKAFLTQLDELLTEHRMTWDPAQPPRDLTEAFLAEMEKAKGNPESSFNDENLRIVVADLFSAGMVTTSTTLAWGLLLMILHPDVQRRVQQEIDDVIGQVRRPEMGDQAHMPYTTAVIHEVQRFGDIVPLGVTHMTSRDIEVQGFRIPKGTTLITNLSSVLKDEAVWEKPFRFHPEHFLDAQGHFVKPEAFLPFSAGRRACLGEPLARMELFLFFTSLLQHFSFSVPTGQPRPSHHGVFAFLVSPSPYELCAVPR

[11] = target: rCYP2C19 (Homo sapiens, UniProt P33261); assay: Metabolic stability / reaction phenotyping with recombinant human CYP2C19; conditions: for % Metabolized at 30 min Incubation with Human Liver Fractions/Enzymes rCYP2C19: 1 µM test compound, 100 pmol/mL
rCYP2C19, sequence (P33261 whole entry): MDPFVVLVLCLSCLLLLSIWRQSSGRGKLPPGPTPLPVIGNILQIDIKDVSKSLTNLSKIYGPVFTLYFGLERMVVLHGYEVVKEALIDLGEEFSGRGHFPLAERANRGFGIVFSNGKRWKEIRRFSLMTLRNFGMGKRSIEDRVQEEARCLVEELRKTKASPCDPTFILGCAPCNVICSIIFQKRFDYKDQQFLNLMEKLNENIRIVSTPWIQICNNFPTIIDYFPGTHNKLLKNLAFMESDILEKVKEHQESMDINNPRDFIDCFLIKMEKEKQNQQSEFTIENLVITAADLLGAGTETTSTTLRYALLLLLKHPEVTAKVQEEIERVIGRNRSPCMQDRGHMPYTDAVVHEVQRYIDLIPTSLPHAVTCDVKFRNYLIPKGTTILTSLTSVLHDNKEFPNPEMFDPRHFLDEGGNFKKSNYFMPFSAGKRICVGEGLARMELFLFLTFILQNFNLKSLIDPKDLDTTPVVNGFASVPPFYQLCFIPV

[12] = target: T5, CYP1A2 (Homo sapiens, UniProt P05177); assay: CYP inhibition in human liver microsomes, CYP1A2
T5 sequence (P05177 1-516): T3 sequence (P05177 1-516)

[13] = human, recombinant enzyme, pH 7.4
[14] = human, recombinant human CYP1A2, 1 µM, pH 7.4
[15] = human, recombinant human CYP2D6, 1 µM, pH 7.4
[16] = human, recombinant human CYP2C19, 1 µM, pH 7.4

rCYP3A4, sequence (P08684 whole entry): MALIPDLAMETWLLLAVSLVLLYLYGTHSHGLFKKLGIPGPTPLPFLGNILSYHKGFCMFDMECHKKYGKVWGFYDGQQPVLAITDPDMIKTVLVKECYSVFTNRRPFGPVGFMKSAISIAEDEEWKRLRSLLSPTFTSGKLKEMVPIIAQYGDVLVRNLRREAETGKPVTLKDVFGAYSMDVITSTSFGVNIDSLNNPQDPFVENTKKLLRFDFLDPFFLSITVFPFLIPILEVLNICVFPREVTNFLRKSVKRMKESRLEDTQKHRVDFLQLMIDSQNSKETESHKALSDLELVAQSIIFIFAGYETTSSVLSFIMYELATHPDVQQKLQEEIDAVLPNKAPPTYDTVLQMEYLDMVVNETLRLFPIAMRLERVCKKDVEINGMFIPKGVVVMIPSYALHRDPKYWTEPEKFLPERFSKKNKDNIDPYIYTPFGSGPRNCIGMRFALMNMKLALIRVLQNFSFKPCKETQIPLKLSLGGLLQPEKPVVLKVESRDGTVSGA

Row | SMILES | % Metabolized at 30 min Incubation with Human Liver Fractions/Enzymes Cytosol [1] [%] | % Metabolized at 30 min Incubation with Human Liver Fractions/Enzymes rCYP3A4 [2] [%] | inhibition at 2 µM [3] [%] | inhibition at 10 µM [3] [%] | inhibition at 2 µM [4] [%] | inhibition at 10 µM [4] [%] | % Metabolized at 30 min Incubation with Human Liver Fractions/Enzymes HLM [5] [%] | inhibition at 2 µM [6] [%] | inhibition at 10 µM [6] [%] | % Metabolized at 30 min Incubation with Human Liver Fractions/Enzymes rCYP1A2 [7] [%] | % Metabolized at 30 min Incubation with Human Liver Fractions/Enzymes rCYP2C8 [8] [%] | % Contribution of CYP Enzymes (fmCYP) in Metabolism, CYP2C8 [8] [%] | Predicted Microsomal Clint, CYP2C8 [8] [µL/min/mg Protein] | rCYP Clint, CYP2C8 [8] [µL/min/pmol] | % Metabolized at 30 min Incubation with Human Liver Fractions/Enzymes rCYP2C9 [9] [%] | % Contribution of CYP Enzymes (fmCYP) in Metabolism, CYP2C9 [9] [%] | Predicted Microsomal Clint, CYP2C9 [9] [µL/min/mg Protein] | rCYP Clint, CYP2C9 [9] [µL/min/pmol] | % Metabolized at 30 min Incubation with Human Liver Fractions/Enzymes rCYP2D6 [10] [%] | % Metabolized at 30 min Incubation with Human Liver Fractions/Enzymes rCYP2C19 [11] [%] | other results
1 | CNC(=O)O/N=C/C(C)(C)SC [Aldicarb, aldicarb] | 21.08 | 0.00 | < 0 | < 0 | < 0 | < 0 | 13.41 | 2.63 | < 0 | 0.00 | 13.26 | 56.91 | 3.035 | 0.047 | 0.00 | 43.09 | 2.298 | 0.024 | 0.00 | 6.93 | –
2 | CNC(=O)Oc1cc(C)c(SC)c(C)c1 [Methiocarb, methiocarb] | 6.93 | 98.38 | 8.34 | 29.7 | < 0 | < 0 | 78.39 | < 0 | < 0 | 46.94 | 41.44 | 4.94 | 11.416 | 0.178 | 6.50 | 0.93 | 2.151 | 0.022 | 99.43 | 19.42 | Predicted Microsomal Clint, CYP3A4 ([2]; human, pH 7.4): 188.076 µL/min/mg Protein; % Contribution of CYP Enzymes (fmCYP) in Metabolism, CYP3A4 [2, 13]: 81.34%; rCYP Clint, CYP3A4 [2, 13]: 1.694 µL/min/pmol; IC50 [12]: 710 nM; % Contribution of CYP Enzymes (fmCYP) in Metabolism, CYP1A2 [7, 14]: 4.75%; Predicted Microsomal Clint, CYP1A2 [7, 14]: 10.987 µL/min/mg Protein; rCYP Clint, CYP1A2 [7, 14]: 0.211 µL/min/pmol; % Contribution of CYP Enzymes (fmCYP) in Metabolism, CYP2D6 [10, 15]: 7.46%; Predicted Microsomal Clint, CYP2D6 [10, 15]: 17.239 µL/min/mg Protein; rCYP Clint, CYP2D6 [10, 15]: 1.724 µL/min/pmol; % Contribution of CYP Enzymes (fmCYP) in Metabolism, CYP2C19 [11, 16]: 0.59%; Predicted Microsomal Clint, CYP2C19 [11, 16]: 1.367 µL/min/mg Protein; rCYP Clint, CYP2C19 [11, 16]: 0.072 µL/min/pmol

Source: PMC6416464 (Drug Metabolism Letters, 2018)
